Data from ChEMBL document CHEMBL1938230, “6-Position optimization of tricyclic 4-quinolone-based inhibitors of glycogen synthase kinase-3β: discovery of nitrile derivatives with picomolar potency” (Bioorg Med Chem Lett, 2012).

Experiments:
HL-60 = assay: Inhibition of human Wnk1/Wnk2/Wnk4 in HL-60 cells lysate assessed as reduction of labeling of acyl-phosphate ATP probe at 100 nM
[1] = molecular target: Tyrosine-protein kinase Fes/Fps (Homo sapiens) (UniProt P07332); assay: Inhibition of human FES in HL-60 cells lysate assessed as reduction of labeling of acyl-phosphate ATP probe at 100 nM; type: cell-free
Sequence of Tyrosine-protein kinase Fes/Fps (Homo sapiens) (P07332 whole entry): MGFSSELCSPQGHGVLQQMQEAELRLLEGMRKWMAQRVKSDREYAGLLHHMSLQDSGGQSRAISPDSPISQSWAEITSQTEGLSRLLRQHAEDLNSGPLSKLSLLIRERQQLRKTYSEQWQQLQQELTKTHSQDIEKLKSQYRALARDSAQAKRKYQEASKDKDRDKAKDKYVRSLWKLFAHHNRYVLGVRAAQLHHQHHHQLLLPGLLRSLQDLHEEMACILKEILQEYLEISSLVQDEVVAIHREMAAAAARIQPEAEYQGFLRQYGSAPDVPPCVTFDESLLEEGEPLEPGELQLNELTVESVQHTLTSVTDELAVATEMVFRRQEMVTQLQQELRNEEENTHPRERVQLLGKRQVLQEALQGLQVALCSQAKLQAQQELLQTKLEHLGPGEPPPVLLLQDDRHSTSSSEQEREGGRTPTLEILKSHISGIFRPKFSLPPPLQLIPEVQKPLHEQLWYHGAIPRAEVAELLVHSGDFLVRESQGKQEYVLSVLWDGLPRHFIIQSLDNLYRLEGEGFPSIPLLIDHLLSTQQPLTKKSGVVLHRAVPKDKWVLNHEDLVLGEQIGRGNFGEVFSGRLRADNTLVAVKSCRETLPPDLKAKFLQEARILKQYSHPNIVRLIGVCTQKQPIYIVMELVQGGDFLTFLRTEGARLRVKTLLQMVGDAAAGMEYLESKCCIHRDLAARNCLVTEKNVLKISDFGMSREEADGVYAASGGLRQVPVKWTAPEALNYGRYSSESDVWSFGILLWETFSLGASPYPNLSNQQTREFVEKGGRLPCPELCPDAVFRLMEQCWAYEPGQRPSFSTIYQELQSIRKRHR

[2] = molecular target: T1, Serine/threonine-protein kinase TAO2 (Homo sapiens) (UniProt Q9UL54); assay: Inhibition of human TAO2 in HL-60 cells lysate assessed as reduction of labeling of acyl-phosphate ATP probe at 100 nM; type: cell-free
T1 sequence (whole entry): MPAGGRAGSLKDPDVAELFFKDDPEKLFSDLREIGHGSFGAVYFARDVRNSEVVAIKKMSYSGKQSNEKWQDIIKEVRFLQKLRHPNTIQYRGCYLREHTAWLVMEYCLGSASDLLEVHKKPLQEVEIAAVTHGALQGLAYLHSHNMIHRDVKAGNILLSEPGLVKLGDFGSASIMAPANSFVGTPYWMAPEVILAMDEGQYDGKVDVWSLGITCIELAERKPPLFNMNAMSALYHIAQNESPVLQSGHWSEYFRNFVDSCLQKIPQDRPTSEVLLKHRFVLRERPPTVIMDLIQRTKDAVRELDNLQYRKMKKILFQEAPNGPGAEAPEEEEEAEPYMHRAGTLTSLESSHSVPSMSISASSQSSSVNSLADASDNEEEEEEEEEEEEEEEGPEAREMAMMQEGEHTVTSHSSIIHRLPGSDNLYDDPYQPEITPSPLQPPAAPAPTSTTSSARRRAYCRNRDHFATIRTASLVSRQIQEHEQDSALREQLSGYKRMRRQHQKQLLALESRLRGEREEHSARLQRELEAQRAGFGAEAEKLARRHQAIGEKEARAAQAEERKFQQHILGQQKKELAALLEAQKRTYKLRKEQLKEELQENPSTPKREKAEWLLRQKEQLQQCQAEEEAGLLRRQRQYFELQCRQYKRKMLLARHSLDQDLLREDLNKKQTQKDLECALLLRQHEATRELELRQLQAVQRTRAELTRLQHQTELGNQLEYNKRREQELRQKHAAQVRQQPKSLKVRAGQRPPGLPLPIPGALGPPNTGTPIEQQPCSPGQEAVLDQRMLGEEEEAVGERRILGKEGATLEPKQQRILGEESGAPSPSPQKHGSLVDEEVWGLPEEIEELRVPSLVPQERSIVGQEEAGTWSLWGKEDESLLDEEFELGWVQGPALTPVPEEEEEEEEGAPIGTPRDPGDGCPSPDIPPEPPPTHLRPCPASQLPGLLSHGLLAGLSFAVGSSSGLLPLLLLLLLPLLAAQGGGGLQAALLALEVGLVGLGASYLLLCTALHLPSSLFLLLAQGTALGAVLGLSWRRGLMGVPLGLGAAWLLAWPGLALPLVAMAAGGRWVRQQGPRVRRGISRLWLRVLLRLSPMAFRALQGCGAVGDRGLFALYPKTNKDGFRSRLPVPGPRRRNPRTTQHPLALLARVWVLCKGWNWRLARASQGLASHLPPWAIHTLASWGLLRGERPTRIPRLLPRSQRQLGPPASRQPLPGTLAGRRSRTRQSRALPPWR

[3] = molecular target: T2, Serine/threonine-protein kinase Nek9 (Homo sapiens) (UniProt Q8TD19); assay: Inhibition of human NEK9 in HL-60 cells lysate assessed as reduction of labeling of acyl-phosphate ATP probe at 100 nM; type: cell-free
T2 sequence (whole entry): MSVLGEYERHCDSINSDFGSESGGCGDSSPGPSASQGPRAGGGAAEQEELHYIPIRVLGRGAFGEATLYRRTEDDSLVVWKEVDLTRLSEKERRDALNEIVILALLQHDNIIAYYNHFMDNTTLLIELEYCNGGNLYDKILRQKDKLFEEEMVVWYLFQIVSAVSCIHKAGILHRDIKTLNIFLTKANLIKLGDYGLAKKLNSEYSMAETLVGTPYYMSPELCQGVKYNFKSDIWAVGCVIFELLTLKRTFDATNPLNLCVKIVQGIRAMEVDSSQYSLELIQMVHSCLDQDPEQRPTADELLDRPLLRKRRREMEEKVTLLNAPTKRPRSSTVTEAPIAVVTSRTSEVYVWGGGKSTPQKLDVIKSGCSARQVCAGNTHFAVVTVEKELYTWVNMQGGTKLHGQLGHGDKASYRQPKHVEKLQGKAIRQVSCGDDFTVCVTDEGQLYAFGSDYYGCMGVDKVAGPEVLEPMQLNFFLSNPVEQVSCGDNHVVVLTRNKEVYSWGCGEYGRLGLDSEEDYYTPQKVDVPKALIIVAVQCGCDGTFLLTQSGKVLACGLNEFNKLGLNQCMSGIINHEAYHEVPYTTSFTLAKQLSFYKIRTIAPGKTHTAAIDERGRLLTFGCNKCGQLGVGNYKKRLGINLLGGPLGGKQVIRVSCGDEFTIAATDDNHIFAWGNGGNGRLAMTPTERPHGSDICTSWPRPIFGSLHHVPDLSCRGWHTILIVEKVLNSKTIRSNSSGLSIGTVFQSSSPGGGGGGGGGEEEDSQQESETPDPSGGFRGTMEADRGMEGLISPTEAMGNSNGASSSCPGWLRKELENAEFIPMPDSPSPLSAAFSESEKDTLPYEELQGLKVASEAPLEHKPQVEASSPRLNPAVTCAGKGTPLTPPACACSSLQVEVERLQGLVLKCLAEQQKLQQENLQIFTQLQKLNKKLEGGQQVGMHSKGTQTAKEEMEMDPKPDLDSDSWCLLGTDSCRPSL

[4] = molecular target: Tyrosine-protein kinase Fer (Homo sapiens) (UniProt P16591); assay: Inhibition of human FER in HL-60 cells lysate assessed as reduction of labeling of acyl-phosphate ATP probe at 100 nM; type: cell-free
Sequence of Tyrosine-protein kinase Fer (Homo sapiens) (P16591 whole entry, looked up): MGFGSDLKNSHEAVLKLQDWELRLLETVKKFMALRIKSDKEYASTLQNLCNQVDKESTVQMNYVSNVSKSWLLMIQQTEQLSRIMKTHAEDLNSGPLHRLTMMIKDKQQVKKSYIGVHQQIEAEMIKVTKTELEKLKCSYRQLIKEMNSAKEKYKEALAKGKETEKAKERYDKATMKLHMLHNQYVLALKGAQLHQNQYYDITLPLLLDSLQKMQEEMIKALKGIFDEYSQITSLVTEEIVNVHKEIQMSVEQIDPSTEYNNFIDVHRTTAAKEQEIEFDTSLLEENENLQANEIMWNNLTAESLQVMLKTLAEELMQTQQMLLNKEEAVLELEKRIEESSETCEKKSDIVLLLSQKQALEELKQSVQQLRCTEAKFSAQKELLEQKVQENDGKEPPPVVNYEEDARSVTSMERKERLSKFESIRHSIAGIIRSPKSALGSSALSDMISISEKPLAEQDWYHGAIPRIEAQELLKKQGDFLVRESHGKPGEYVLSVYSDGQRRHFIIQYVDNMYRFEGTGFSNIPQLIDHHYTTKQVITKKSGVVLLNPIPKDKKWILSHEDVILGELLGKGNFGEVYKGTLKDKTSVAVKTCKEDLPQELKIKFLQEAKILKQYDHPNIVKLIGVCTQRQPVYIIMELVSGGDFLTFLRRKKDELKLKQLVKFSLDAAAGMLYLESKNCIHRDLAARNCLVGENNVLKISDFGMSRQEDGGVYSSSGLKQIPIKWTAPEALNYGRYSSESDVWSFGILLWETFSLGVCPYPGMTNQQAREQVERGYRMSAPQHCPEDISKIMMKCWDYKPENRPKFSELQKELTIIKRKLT

inhibition [1] [%] | inhibition [2] [%] | inhibition [4] [%] | SMILES | inhibition at 0.1 µM (HL-60) [%] | inhibition [3] [%]
< 35 | < 35 | < 35 | C[C@H]1COc2c(NCCCc3ccccn3)c(F)c(N)c3c(=O)c(C#N)cn1c23 | < 35 | < 35
< 35 | < 35 | < 35 | C[C@H]1COc2c(NCCCn3cccn3)c(F)c(N)c3c(=O)c(C#N)cn1c23 | < 35 | < 35
< 35 | < 35 | < 35 | C[C@H]1COc2c(NCCCc3ccccn3)c(F)c(N)c3c(=O)c(C(=O)O)cn1c23 | < 35 | < 35
< 35 | < 35 | < 35 | C[C@H]1COc2c(NCCCn3cccn3)c(F)c(N)c3c(=O)c(C(=O)O)cn1c23 | < 35 | < 35
